Reference: PubChem BioAssay (NCI)
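These data come from cells grown in 96-well plates and exposed to compound for 48 hours at five concentrations. GI50 marks 50% less growth. Definition used: TGI = concentration required for complete inhibition of growth.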

Assays:
Test in all cases: NCI-60 cell line screen, 48 h; in the data active = GI50 below about 0.43 µM; inactive = the rest
786-0 renal = tested on: 786-0 renal
A498 renal = tested on: A498 renal
A549 NSCLC = tested on: A549 NSCLC
ACHN renal = tested on: ACHN renal
BT-549 breast = tested on: BT-549 breast
CAKI-1 renal = tested on: CAKI-1 renal
CCRF-CEM leukemia = tested on: CCRF-CEM leukemia
COLO 205 colon = tested on: COLO 205 colon
DU-145 prostate = tested on: DU-145 prostate
EKVX NSCLC = tested on: EKVX NSCLC
HCC-2998 colon = tested on: HCC-2998 colon
HCT-116 colon = tested on: HCT-116 colon
HCT-15 colon = tested on: HCT-15 colon
HL-60(TB) leukemia = tested on: HL-60(TB) leukemia
HOP-62 NSCLC = tested on: HOP-62 NSCLC
HOP-92 NSCLC = tested on: HOP-92 NSCLC
HS 578T breast = tested on: HS 578T breast
HT29 colon = tested on: HT29 colon
IGROV1 ovarian = tested on: IGROV1 ovarian
K-562 leukemia = tested on: K-562 leukemia
KM12 colon = tested on: KM12 colon
LOX IMVI melanoma = tested on: LOX IMVI melanoma
M14 melanoma = tested on: M14 melanoma
MCF7 breast = tested on: MCF7 breast
MDA-MB-231 breast = tested on: MDA-MB-231 breast
MDA-MB-435 = tested on: MDA-MB-435
MOLT-4 leukemia = tested on: MOLT-4 leukemia
NCI-H226 lung = tested on: NCI-H226 lung
NCI-H23 lung = tested on: NCI-H23 lung
NCI-H460 lung = tested on: NCI-H460 lung
NCI-H522 lung = tested on: NCI-H522 lung
NCI/ADR-RES ovarian = tested on: NCI/ADR-RES ovarian
OVCAR-3 ovarian = tested on: OVCAR-3 ovarian
OVCAR-4 ovarian = tested on: OVCAR-4 ovarian
OVCAR-5 ovarian = tested on: OVCAR-5 ovarian
OVCAR-8 ovarian = tested on: OVCAR-8 ovarian
PC-3 prostate = tested on: PC-3 prostate
RPMI-8226 leukemia = tested on: RPMI-8226 leukemia
RXF 393 renal = tested on: RXF 393 renal
SF-268 CNS = tested on: SF-268 CNS
SF-295 CNS = tested on: SF-295 CNS
SF-539 CNS = tested on: SF-539 CNS
SK-MEL-2 melanoma = tested on: SK-MEL-2 melanoma
SK-MEL-28 melanoma = tested on: SK-MEL-28 melanoma
SK-MEL-5 melanoma = tested on: SK-MEL-5 melanoma
SK-OV-3 ovarian = tested on: SK-OV-3 ovarian
SN12C renal = tested on: SN12C renal
SNB-19 CNS = tested on: SNB-19 CNS
SNB-75 CNS = tested on: SNB-75 CNS
SR leukemia = tested on: SR leukemia
SW-620 colon = tested on: SW-620 colon
T-47D breast = tested on: T-47D breast
TK-10 renal = tested on: TK-10 renal
U251 CNS = tested on: U251 CNS
UACC-257 melanoma = tested on: UACC-257 melanoma
UACC-62 melanoma = tested on: UACC-62 melanoma
UO-31 renal = tested on: UO-31 renal

CC(=O)O[C@H]1C(=O)[C@@]2(C)[C@H]([C@H](OC(=O)c3ccccc3)[C@]3(O)C[C@H](OC(=O)[C@H](OC(=O)OC[C@@H]4COC(C)(C)O4)[C@@H](NC(=O)c4ccccc4)c4ccccc4)C(C)=C1C3(C)C)[C@]1(OC(C)=O)CO[C@@H]1C[C@@H]2O
23.7 nM: TGI (MDA-MB-435)
> 33300 nM: TGI (786-0 renal) | TGI (A549 NSCLC) | TGI (ACHN renal) | TGI (BT-549 breast) | TGI (CAKI-1 renal) | TGI (CCRF-CEM leukemia) | TGI (COLO 205 colon) | TGI (DU-145 prostate) | TGI (EKVX NSCLC) | TGI (HCC-2998 colon) | TGI (HCT-116 colon) | TGI (HCT-15 colon) | TGI (HL-60(TB) leukemia) | TGI (HOP-62 NSCLC) | TGI (HOP-92 NSCLC) | TGI (HT29 colon) | TGI (IGROV1 ovarian) | TGI (K-562 leukemia) | TGI (KM12 colon) | TGI (LOX IMVI melanoma) | TGI (MCF7 breast) | TGI (MOLT-4 leukemia) | TGI (NCI-H226 lung) | TGI (NCI-H23 lung) | TGI (NCI-H460 lung) | TGI (NCI-H522 lung) | TGI (NCI/ADR-RES ovarian) | TGI (OVCAR-4 ovarian) | TGI (OVCAR-5 ovarian) | TGI (OVCAR-8 ovarian) | TGI (PC-3 prostate) | TGI (RPMI-8226 leukemia) | TGI (SF-268 CNS) | TGI (SK-MEL-2 melanoma) | TGI (SK-MEL-28 melanoma) | TGI (SK-MEL-5 melanoma) | TGI (SK-OV-3 ovarian) | TGI (SN12C renal) | TGI (SNB-19 CNS) | TGI (SR leukemia) | TGI (SW-620 colon) | TGI (T-47D breast) | TGI (TK-10 renal) | TGI (U251 CNS) | TGI (UACC-257 melanoma) | TGI (UACC-62 melanoma) | TGI (UO-31 renal)
1160 nM: TGI (HS 578T breast)
233 nM: TGI (M14 melanoma)
inactive: GI50 (ACHN renal) 1040 nM | GI50 (HCT-15 colon) 552 nM | GI50 (NCI-H226 lung) 506 nM | GI50 (NCI/ADR-RES ovarian) > 33300 nM | GI50 (OVCAR-4 ovarian) > 33300 nM | GI50 (SK-MEL-28 melanoma) > 33300 nM | GI50 (SK-OV-3 ovarian) 1020 nM | GI50 (TK-10 renal) 656 nM | GI50 (UACC-257 melanoma) > 7380 nM | GI50 (UO-31 renal) 1790 nM
574 nM: TGI (SF-295 CNS)
758 nM: TGI (A498 renal)
279 nM: TGI (RXF 393 renal)
137 nM: TGI (SNB-75 CNS)
> 7260 nM: TGI (MDA-MB-231 breast)
active: GI50 (786-0 renal) 327 nM | GI50 (A498 renal) 79.9 nM | GI50 (A549 NSCLC) 48.8 nM | GI50 (BT-549 breast) 120 nM | GI50 (CAKI-1 renal) 182 nM | GI50 (CCRF-CEM leukemia) 40.2 nM | GI50 (COLO 205 colon) 29.2 nM | GI50 (DU-145 prostate) 42.4 nM | GI50 (EKVX NSCLC) 190 nM | GI50 (HCC-2998 colon) 96.9 nM | GI50 (HCT-116 colon) 11.2 nM | GI50 (HL-60(TB) leukemia) 24.1 nM | GI50 (HOP-62 NSCLC) 119 nM | GI50 (HOP-92 NSCLC) 53.2 nM | GI50 (HS 578T breast) 25.6 nM | GI50 (HT29 colon) 10.4 nM | GI50 (IGROV1 ovarian) 62 nM | GI50 (K-562 leukemia) 17.6 nM | GI50 (KM12 colon) 19.6 nM | GI50 (LOX IMVI melanoma) 18.8 nM | GI50 (M14 melanoma) 26.8 nM | GI50 (MCF7 breast) 9.71 nM | GI50 (MDA-MB-231 breast) 143 nM | GI50 (MDA-MB-435) 4.81 nM | GI50 (MOLT-4 leukemia) 57.1 nM | GI50 (NCI-H23 lung) 72.6 nM | GI50 (NCI-H460 lung) 7.74 nM | GI50 (NCI-H522 lung) 37.5 nM | GI50 (OVCAR-3 ovarian) 18.3 nM | GI50 (OVCAR-5 ovarian) 60.3 nM | GI50 (OVCAR-8 ovarian) 85.7 nM | GI50 (PC-3 prostate) 45.1 nM | GI50 (RPMI-8226 leukemia) 9.35 nM | GI50 (RXF 393 renal) 45.4 nM | GI50 (SF-268 CNS) 251 nM | GI50 (SF-295 CNS) 59.8 nM | GI50 (SF-539 CNS) 71.5 nM | GI50 (SK-MEL-2 melanoma) 175 nM | GI50 (SK-MEL-5 melanoma) 147 nM | GI50 (SN12C renal) 60 nM | GI50 (SNB-19 CNS) 92.3 nM | GI50 (SNB-75 CNS) 4.11 nM | GI50 (SR leukemia) 31.2 nM | GI50 (SW-620 colon) 21.3 nM | GI50 (T-47D breast) 63.1 nM | GI50 (U251 CNS) 40.9 nM | GI50 (UACC-62 melanoma) 58.7 nM
2210 nM: TGI (SF-539 CNS)
